molecular target: human Nav1.7 (Homo sapiens, UniProt Q15858); test: FLIPR sodium dye assay (CoroNa Green AM Na+ dye, primary fluorescence assay) in recombinant Nav1.7/HEK293 cells; type: cell-based; settings: Table 6; CoroNa Green AM Na+ dye primary fluorescence assay; read-out: Nav1.7 Activity (μM) FLIPR assay IC50
Sequence (Q15858 1-1977 isoform Q15858-3): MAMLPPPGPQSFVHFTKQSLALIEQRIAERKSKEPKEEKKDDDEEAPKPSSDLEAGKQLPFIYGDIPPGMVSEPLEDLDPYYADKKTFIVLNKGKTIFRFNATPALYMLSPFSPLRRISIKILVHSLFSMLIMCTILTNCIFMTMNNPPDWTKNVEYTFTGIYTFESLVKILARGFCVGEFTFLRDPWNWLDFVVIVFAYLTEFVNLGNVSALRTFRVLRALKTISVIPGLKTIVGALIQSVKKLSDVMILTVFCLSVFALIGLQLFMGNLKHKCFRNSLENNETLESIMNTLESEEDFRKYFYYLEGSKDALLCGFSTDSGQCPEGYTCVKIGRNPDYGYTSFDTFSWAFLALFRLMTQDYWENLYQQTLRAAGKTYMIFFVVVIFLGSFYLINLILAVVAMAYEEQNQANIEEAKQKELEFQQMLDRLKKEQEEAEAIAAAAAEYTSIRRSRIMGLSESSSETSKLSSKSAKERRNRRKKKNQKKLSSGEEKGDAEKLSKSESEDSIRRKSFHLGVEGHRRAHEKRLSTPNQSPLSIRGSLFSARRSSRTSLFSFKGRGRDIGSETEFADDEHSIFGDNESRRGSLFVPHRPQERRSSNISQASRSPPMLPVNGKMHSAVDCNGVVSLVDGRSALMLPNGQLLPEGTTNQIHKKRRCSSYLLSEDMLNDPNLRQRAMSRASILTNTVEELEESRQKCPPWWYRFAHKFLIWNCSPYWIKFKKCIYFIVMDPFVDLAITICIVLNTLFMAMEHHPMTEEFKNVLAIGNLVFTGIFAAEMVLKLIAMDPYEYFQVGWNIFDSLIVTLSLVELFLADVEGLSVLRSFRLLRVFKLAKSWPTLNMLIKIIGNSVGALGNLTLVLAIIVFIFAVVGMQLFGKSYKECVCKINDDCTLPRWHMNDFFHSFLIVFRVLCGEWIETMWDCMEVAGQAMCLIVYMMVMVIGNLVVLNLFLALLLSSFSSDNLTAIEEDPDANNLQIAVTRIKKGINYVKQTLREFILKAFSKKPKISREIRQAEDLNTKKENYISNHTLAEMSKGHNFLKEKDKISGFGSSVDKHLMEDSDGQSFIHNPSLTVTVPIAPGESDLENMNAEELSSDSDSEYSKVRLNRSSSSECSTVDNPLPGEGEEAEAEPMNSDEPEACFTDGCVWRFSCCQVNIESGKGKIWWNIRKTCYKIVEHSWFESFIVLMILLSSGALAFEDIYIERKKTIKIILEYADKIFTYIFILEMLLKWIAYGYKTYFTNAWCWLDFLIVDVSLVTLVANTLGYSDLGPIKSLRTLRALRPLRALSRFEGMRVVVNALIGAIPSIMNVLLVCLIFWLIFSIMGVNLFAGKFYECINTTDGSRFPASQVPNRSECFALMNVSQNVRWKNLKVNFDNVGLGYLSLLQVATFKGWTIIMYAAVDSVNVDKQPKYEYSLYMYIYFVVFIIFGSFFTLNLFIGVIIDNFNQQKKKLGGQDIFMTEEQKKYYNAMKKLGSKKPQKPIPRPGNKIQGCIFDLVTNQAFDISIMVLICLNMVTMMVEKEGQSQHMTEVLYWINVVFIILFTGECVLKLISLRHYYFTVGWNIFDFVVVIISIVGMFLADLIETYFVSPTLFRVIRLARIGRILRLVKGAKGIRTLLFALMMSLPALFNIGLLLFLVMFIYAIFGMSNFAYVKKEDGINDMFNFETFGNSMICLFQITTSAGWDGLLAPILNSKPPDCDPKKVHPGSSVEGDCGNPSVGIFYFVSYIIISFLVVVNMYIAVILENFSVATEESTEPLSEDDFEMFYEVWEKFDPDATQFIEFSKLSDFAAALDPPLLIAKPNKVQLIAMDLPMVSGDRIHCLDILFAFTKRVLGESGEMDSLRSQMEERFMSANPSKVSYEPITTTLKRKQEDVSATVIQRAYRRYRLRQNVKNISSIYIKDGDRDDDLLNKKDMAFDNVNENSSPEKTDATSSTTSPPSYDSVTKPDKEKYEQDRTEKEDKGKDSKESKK

Row | SMILES | IC50
1 | NC(=O)c1cc(N[C@H]2CCNC2=O)nc(C2CCC(Oc3ccc(C(F)(F)F)cn3)CC2)n1 (stereo partly drawn) [Cpd No. 214, (S)-6-((2-oxopyrrolidin-3-yl)amino)-2-(4-((5-(trifluoromethyl)pyridin-2-yl)oxy)cyclohexyl)pyrimnidine-4-carboxamide] | 0.93 µM
2 | C[C@H](Nc1cc(C(N)=O)nc(Oc2ccc(F)cc2)n1)C(N)=O [compound 104, (S)-6-((1-amino-1-oxopropan-2-yl)amino)-2-(4-fluorophenoxy)pyrimidine-4-carboxamide] | > 20 µM
3 | C[C@H](Nc1cc(C(N)=O)nc(-c2cc(F)c(OCc3ccccc3)cc2F)n1)C(N)=O [compound 105, (S)-6-((1-amino-1-oxopropan-2-yl)amino)-2-(4-(benzyloxy)-2,5-difluorophenyl)pyrimidine-4-carboxamide] | > 20 µM
4 | C[C@H](Nc1cc(C(N)=O)nc(N2CC3CC2CN3c2ccc(F)cc2)n1)C(N)=O (stereo partly drawn) [compound 106, 6-(((S)-1-amino-1-oxopropan-2-yl)amino)-2-(5-(4-fluorophenyl)-2,5-diazabicyclo[2.2.1]heptan-2-yl)pyrimidine-4-carboxamide] | 10 to 20 µM
5 | C[C@H](Nc1cc(C(N)=O)nc(N2CCC(Cc3ccccc3)CC2)n1)C(N)=O [compound 107, (S)-6-((1-amino-1-oxopropan-2-yl)amino)-2-(4-benzylpiperidin-1-yl)pyrimidine-4-carboxamide] | 1.95 µM
6 | NC(=O)c1cc(N2CCNCC2C(N)=O)nc(-c2ccc(Oc3ccc(Cl)cc3F)cc2)n1 (stereo not drawn) [compound 108, 6-(2-carbamoylpiperazin-1-yl)-2-(4-(4-chloro-2-fluorophenoxy)phenyl)pyrimnidine-4-carboxamide] | 0.29 µM
7 | C[C@H](Nc1cc(C(N)=O)nc(-c2ccc(Oc3ccc4c(c3)CCC4)cc2)n1)C(N)=O [compound 109, (S)-6-((1-amino-1-oxopropan-2-yl)amino)-2-(4-((2,3-dihydro-1H-inden-5-yl)oxy)phenyl)pyrimidine-4-carboxamide] | 0.11 µM
8 | C[C@@H](Nc1cc(C(N)=O)nc(-c2ccc(Oc3ccc(C(C)(C)C)cc3)cc2)n1)C(N)=O [compound 110, (R)-6-((1-amino-1-oxopropan-2-yl)amino)-2-(4-(4-(tert-butyl)phenoxy)phenyl)pyrimidine-4-carboxamide] | 0.2 µM
9 | C[C@H](Nc1cc(C(N)=O)nc(-c2ccc(Oc3ccc(F)cc3)c(C(N)=O)c2)n1)C(N)=O [compound 111, (S)-6-((1-amino-1-oxopropan-2-yl)amino)-2-(3-carbamoyl-4-(4-fluorophenoxy)phenyl)pyrimidine-4-carboxamide] | 7.88 µM
10 | CC(C)N1CCN(c2cc(C(N)=O)nc(-c3ccc(Oc4ccc(F)cc4)cc3)n2)C(C(N)=O)C1 (stereo not drawn) [compound 112, 6-(2-carbamoyl-4-isopropylpiperazin-1-yl)-2-(4-(4-fluorophenoxy)phenyl)pyrimidine-4-carboxamide] | 0.38 µM
11 | N#Cc1ccc(Oc2ccc(-c3nc(N[C@H]4CCNC4=O)cc(C(N)=O)n3)cc2)cc1 [compound 113, (S)-2-(4-(4-cyanophenoxy)phenyl)-6-((2-oxopyrrolidin-3-yl)amino)pyrimidine-4-carboxamide] | 0.29 µM
12 | NC(=O)c1cc(N[C@H]2CCNC2=O)nc(-c2ccc(Oc3ccc(C(F)(F)F)cc3)cc2)n1 [compound 114, (S)-6-((2-oxopyrrolidin-3-yl)amino)-2-(4-(4-(trifluoromethyl)phenoxy)phenyl)pyrimidine-4-carboxamide] | 0.33 µM
13 | NC(=O)c1cc(N[C@H]2CCNC2=O)nc(-c2ccc(Oc3ccc4c(c3)OCO4)cc2)n1 [compound 115, (S)-2-(4-(benzo[d][1,3]dioxol-5-yloxy)phenyl)-6-((2-oxopyrrolidin-3-yl)amino)pyrimnidine-4-carboxamide] | 0.3 µM
14 | NC(=O)c1cc(N[C@H]2CCNC2=O)nc(-c2ccc(Oc3ccc(OC(F)(F)F)cc3)cc2)n1 [compound 116, (S)-6-((2-oxopyrrolidin-3-yl)amino)-2-(4-(4-(trifluoromethoxy)phenoxy)phenyl)pyrimidine-4-carboxamide] | 0.18 µM
15 | NC(=O)c1cc(O[C@H]2CCNC2=O)nc(-c2ccc(Oc3ccc(F)cc3)cc2)n1 [compound 118, (S)-2-(4-(4-fluorophenoxy)phenyl)-6-((2-oxopyrrolidin-3-yl)oxy)pyrimidine-4-carboxamide] | 0.35 µM
16 | NC(=O)c1cc(OCCN2CCCC2=O)nc(-c2ccc(Oc3ccc(C(F)(F)F)cc3)cc2)n1 [compound 119, 6-(2-(2-oxopyrrolidin-1-yl)ethoxy)-2-(4-(4-(trifluoromethyl)phenoxy)phenyl)pyrimidine-4-carboxamide] | 0.12 µM
17 | CC(C)(CO)[C@H](Oc1cc(C(N)=O)nc(-c2ccc(Oc3ccc(C(F)(F)F)cc3)cc2)n1)C(N)=O [compound 120, (S)-6-((1-amino-4-hydroxy-3,3-dimethyl-1-oxobutan-2-yl)oxy)-2-(4-(4-(trifluoromethyl)phenoxy)phenyl) pyrimidine-4-carboxamide] | 0.76 µM

Row | SMILES | IC50
18 | NC(=O)c1cc(O[C@@H](CO)C(N)=O)nc(-c2ccc(Oc3ccc(C(F)(F)F)cc3)cc2)n1 [compound 121, (S)-6-((1-amino-3-hydroxy-1-oxopropan-2-yl)oxy)-2-(4-(4-(trifluoromethyl)phenoxy)phenyl)pyrimidine-4-carboxamide] | 1.01 µM
19 | C=CCN1CC[C@H](Oc2cc(C(N)=O)nc(-c3ccc(Oc4ccc(F)cc4)cc3)n2)C1=O [compound 122, (S)-6-((1-allyl-2-oxopyrrolidin-3-yl)oxy)-2-(4-(4-fluorophenoxy)phenyl)pyrimidine-4-carboxamide] | 0.8 µM
20 | NC(=O)c1cc(O[C@H]2CCN(C[C@H](O)CO)C2=O)nc(-c2ccc(Oc3ccc(F)cc3)cc2)n1 [compound 123, 6-(((S)-1-((S)-2,3-dihydroxypropyl)-2-oxopyrrolidin-3-yl)oxy)-2-(4-(4-fluorophenoxy)phenyl)pyrimidine-4-carboxamide] | 0.67 µM
21 | NC(=O)c1cc(O[C@H](C(N)=O)C(O)CO)nc(-c2ccc(Oc3ccc(C(F)(F)F)cc3)cc2)n1 (stereo partly drawn) [compound 124, 6-(((2S)-1-amino-3,4-dihydroxy-1-oxobutan-2-yl)oxy)-2-(4-(4-(trifluoromethyl)phenoxy)phenyl)pyrimidine-4-carboxamide] | 0.7 µM
22 | NC(=O)c1cc(N2CCC[C@H]2C(N)=O)nc(-c2ccc(Oc3ccc(OC(F)(F)F)cc3)cc2)n1 [compound 125, (S)-6-(2-carbamoylpyrrolidin-1-yl)-2-(4-(4-(trifluoromethoxy)phenoxy)phenyl)pyrimnidine-4-carboxamide] | 0.28 µM
23 | NC(=O)c1cc(-c2ccc(Oc3ccc(OC(F)(F)F)cc3)cc2)nc(N2CCC[C@H]2C(N)=O)n1 [compound 126, (S)-2-(2-carbamoylpyrrolidin-1-yl)-6-(4-(4-(trifluoromethoxy)phenoxy)phenyl)pyrimidine-4-carboxamide] | > 20 µM
24 | NC(=O)c1cc(OCCN2CCNC2=O)nc(-c2ccc(Oc3ccc(C(F)(F)F)cc3)cc2)n1 [compound 127, 6-(2-(2-oxoimidazolidin-1-yl)ethoxy)-2-(4-(4-(trifluoromethyl)phenoxy)phenyl) pyrimnidine-4-carboxamide] | 0.26 µM
25 | C[C@H](Nc1cc(C(N)=O)nc(-c2ccc(Oc3ccc(C#N)cc3)cc2C(F)(F)F)n1)C(N)=O [compound 128, (S)-6-((1-amino-1-oxopropan-2-yl)amino)-2-(4-(4-cyanophenoxy)-2-(trifluoromethyl)phenyl)pyrimidine-4-carboxamide] | > 20 µM
26 | C[C@H](Oc1cc(C(N)=O)nc(-c2ccc(Oc3ccc4c(c3)CCC4)cc2)n1)C(N)=O [compound 129, (S)-6-((1-amino-1-oxopropan-2-yl)oxy)-2-(4-((2,3-dihydro-1H-inden-5-yl)oxy)phenyl)pyrimidine-4-carboxamide] | 0.26 µM
27 | COCc1cc(Oc2ccc(F)cc2)ccc1-c1nc(N[C@@H](C)C(N)=O)cc(C(N)=O)n1 [compound 130, (S)-6-((1-amino-1-oxopropan-2-yl)amino)-2-(4-(4-fluorophenoxy)-2-(methoxymethyl)phenyl)pyrimidine-4-carboxamide] | 1.77 µM
28 | CN1CCC(Nc2cc(C(N)=O)nc(-c3ccc(Oc4ccc(F)cc4)cc3)n2)C1=O (stereo not drawn) [compound 131, 2-(4-(4-fluorophenoxy)phenyl)-6-((1-methyl-2-oxopyrrolidin-3-yl)amino)pyrimnidine-4-carboxamide] | 0.22 µM
29 | NC(=O)c1cc(N2CC[C@H]2C(N)=O)nc(-c2ccc(Oc3ccc(F)cc3)cc2)n1 [compound 132, (S)-6-(2-carbamoylazetidin-1-yl)-2-(4-(4-fluorophenoxy)phenyl)pyrimidine-4-carboxamide] | 0.28 µM
30 | NC(=O)c1cc(N[C@H]2CCNC2=O)nc(N2C3CCC2CC(Oc2ccc(C(F)(F)F)cc2)C3)n1 (stereo partly drawn) [compound 135, 6-(((S)-2-oxopyrrolidin-3-yl)amino)-2-(3-(4-(trifluoromethyl)phenoxy)-8-azabicyclo[3.2.1]octan-8-yl)pyrimidine-4-carboxamide] | 1.62 µM
31 | NC(=O)c1cc(N[C@H]2CCNC2=O)nc(N2CC3CC2CN3Cc2ccc(OC(F)(F)F)cc2)n1 (stereo partly drawn) [compound 136, 6-(((S)-2-oxopyrrolidin-3-yl)amino)-2-(5-(4-(trifluoromethoxy)benzyl)-2,5-diazabicyclo[2.2.1]heptan-2-yl)pyrimidine-4-carboxamide] | > 20 µM
32 | O=C(NCCN1CCCC1)c1cc(N[C@H]2CCNC2=O)nc(-c2ccc(Oc3ccc(C(F)(F)F)cn3)cc2)n1 [compound 137, (S)-6-((2-oxopyrrolidin-3-yl)amino)-N-(2-(pyrrolidin-1-yl)ethyl)-2-(4-((5-(trifluoromethyl)pyridin-2-yl)oxy)phenyl)pyrimidine-4-carboxamide] | 4.17 µM
33 | NC(=O)c1cc(N[C@H]2CCNC2=O)nc(C2=C[C@H]3CC[C@@H](C2)N3Cc2ccc(F)cc2)n1 [compound 138, 2-((1R,5S)-8-(4-fluorobenzyl)-8-azabicyclo[3.2.1]oct-2-en-3-yl)-6-(((S)-2-oxopyrrolidin-3-yl)amino)pyrimidine-4-carboxamide] | > 20 µM
